Assay results: patent US9468661B2, “Pyrrolidine derivatives and their use as complement pathway modulators” (priority 2012, dated 2016)

Each molecule was assayed against human factor D (Homo sapiens (Human), UniProt P00746) (assay: biochemical). Settings: Factor D inhibition data using Method 1; recombinant human factor D 10 nM, substrate Z-Lys-thiobenzyl, fluorescence; read-out: IC50.
Type: biochemical
Experimental: Human Complement Factor D Assay: Method 1
Recombinant human factor D (expressed in E. coli and purified using standard methods) at 10 nM concentration is incubated with test compound at various concentrations for 1 hour at room temperature in 0.1 M Hepes buffer, pH 7.5, containing 1 mM MgCl2, 1 M NaCl and 0.05% CHAPS. A synthetic substrate Z-Lys-thiobenzyl and 2,4-dinitrobenzenesulfonyl-fluoresceine are added to final concentrations of 200 μM and 25 μM, respectively. The increase in fluorescence is recorded at excitation of 485 nm and emission at 535 nm in a microplate spectrofluorimeter. IC50 values are calculated from percentage of inhibition of complement factor D-activity as a function of test compound concentration.

Sequence of human factor D (P00746 26-253): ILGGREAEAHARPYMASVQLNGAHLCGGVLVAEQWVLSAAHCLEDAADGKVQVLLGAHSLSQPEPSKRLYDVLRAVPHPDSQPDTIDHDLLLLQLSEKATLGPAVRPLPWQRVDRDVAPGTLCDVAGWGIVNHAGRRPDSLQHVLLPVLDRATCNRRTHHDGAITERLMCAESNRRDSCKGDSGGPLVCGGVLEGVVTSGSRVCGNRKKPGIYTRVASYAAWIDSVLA

Compared with `CC(=O)c1nn(CC(=O)N2[C@@H]3C[C@@H]3C[C@H]2C(=O)NCC2CCCCC2F)c2cnccc12` (mixture of isomers) [Example 16, (1R,3S,5R)-2-[2-(3-Acetyl-pyrazolo[3,4-c]pyridin-1-yl)-acetyl]-2-aza-bicyclo[3.1.0] hexane-3-carboxylic acid (2-fluoro-cyclohexylmethyl)-amide (mixture of 4 diastereomers)], `CC(=O)c1nn(CC(=O)N2[C@@H]3C[C@@H]3C[C@H]2C(=O)NC2(C3CCCCC3)CC2)c2cnccc12` [Example 15, (1R,3S,5R)-2-[2-(3-Acetyl-pyrazolo[3,4-c]pyridin-1-yl)-acetyl]-2-aza-bicyclo[3.1.0] hexane-3-carboxylic acid (1-cyclohexyl-cyclopropyl)-amide] is 2.1-fold higher in IC50: 174 nM for the first, 358 nM for the second. The first is the more potent here.

Compared with `CC(=O)c1nn(CC(=O)N2[C@@H]3C[C@@H]3C[C@H]2C(=O)NC[C@@H]2CC2(Cl)Cl)c2ccc(OCc3ncccn3)cc12` [Example 93, (1R,3S,5R)-2-{2-[3-Acetyl-5-(pyrimidin-2-ylmethoxy)-indazol-1-yl]-acetyl}-2-aza-bicyclo[3.1.0] hexane-3-carboxylic acid ((S)-2,2-dichloro-cyclopropylmethyl)-amide], `NC(=O)c1nn(CC(=O)N2[C@@H]3C[C@@H]3C[C@H]2C(=O)NC[C@H]2CC2(Cl)Cl)c2ccc(OCc3ncccn3)cc12` [Example 110, 1-(2-{(1R,3S,5R)-3-[((R)-2,2-Dichloro-cyclopropylmethyl)-carbamoyl]-2-aza-bicyclo [3.1.0]hex-2-yl}-2-oxo-ethyl)-5-(pyrimidin-2-ylmethoxy)-1H-indazole-3-carboxylic acid amide] is 2.2-fold higher in IC50: 19 nM for the first, 41 nM for the second.

Compared with `CO[C@H]1[C@@H](C(=O)NC[C@H]2CC2(Cl)Cl)N(C(=O)Cn2nc(C(N)=O)c3ccccc32)C[C@@H]1F` [Example 42, 1-(2-{(2S,3S,4S)-2-[((R)-2,2-Dichloro-cyclopropylmethyl)-carbamoyl]-4-fluoro-3-methoxy-pyrrolidin-1-yl}-2-oxo-ethyl)-1H-indazole-3-carboxylic acid amide], `C[C@@H](NC(=O)[C@@H]1C[C@@H](F)CN1C(=O)Cn1nc(C(N)=O)c2ccccc21)[C@H]1CC1(Cl)Cl` [Example 58, 1-(2-{(2S,4R)-2-[(R)-1-((R)-2,2-Dichloro-cyclopropyl)-ethylcarbamoyl]-4-fluoro-pyrrolidin-1-yl}-2-oxo-ethyl)-1H-indazole-3-carboxylic acid amide] is 2.9-fold lower in IC50: 112 nM for the first, 39 nM for the second. The second is the more potent here.

Compared with `CC(=O)c1nn(CC(=O)N2[C@@H]3C[C@@H]3C[C@H]2C(=O)N[C@H](C)[C@H]2CC2(Cl)Cl)c2cnccc12` [Example 47, (1R,3S,5R)-2-[2-(3-Acetyl-pyrazolo[3,4-c]pyridin-1-yl)-acetyl]-2-aza-bicyclo[3.1.0] hexane-3-carboxylic acid [(R)-1-((R)-2,2-dichloro-cyclopropyl)-ethyl]-amide], `C[C@@H](NC(=O)[C@@H]1C[C@H]2C[C@H]2N1C(=O)Cn1nc(C(N)=O)c2ccncc21)[C@H]1CC1(Cl)Cl` [Example 37, 1-(2-{(1R,3S,5R)-3-[(R)-1-((R)-2,2-Dichloro-cyclopropyl)-ethylcarbamoyl]-2-aza-bicyclo[3.1.0]hex-2-yl}-2-oxo-ethyl)-1H-pyrazolo[3,4-c]pyridine-3-carboxylic acid amide] is 3.2-fold lower in IC50: 35 nM for the first, 11 nM for the second. The second is the more potent here.

Going from `CC(=O)c1nn(CC(=O)N2[C@@H]3C[C@@H]3C[C@H]2C(=O)NCC2CC2(Cl)Cl)c2ncccc12` (stereo partly drawn) [Example 11, (1R,3S,5R)-2-[2-(3-Acetyl-pyrazolo[3,4-b]pyridin-1-yl)-acetyl]-2-aza-bicyclo[3.1.0] hexane-3-carboxylic acid (2,2-dichloro-cyclopropylmethyl)-amide] to `NC(=O)c1nn(CC(=O)N2[C@@H]3C[C@@H]3C[C@H]2C(=O)NC[C@H]2CC2(Cl)Cl)c2ccncc12` [Example 95, 1-(2-{(1R,3S,5R)-3-[((R)-2,2-Dichlorocyclopropylmethyl)-carbamoyl]-2-aza-bicyclo[3.1.0]hex-2-yl}-2-oxo-ethyl)-1H-pyrazolo[4,3-c]pyridine-3-carboxylic acid amide], the IC50 rises from 163 nM to 482 nM (3-fold). The first is the more potent here.

First: NC(=O)c1nn(CC(=O)N2[C@@H]3C[C@@H]3C[C@H]2C(=O)NC[C@H]2CC2(Cl)Cl)c2ccc(OCc3nccs3)cc12 [Example 40, 1-(2-{(1R,3S,5R)-3-[((R)-2,2-Dichloro-cyclopropylmethyl)-carbamoyl]-2-aza-bicyclo[3.1.0]hex-2-yl}-2-oxo-ethyl)-5-(thiazol-2-ylmethoxy)-1H-indazole-3-carboxylic acid amide]
Second: NC(=O)c1nn(CC(=O)N2[C@@H]3C[C@@H]3C[C@H]2C(=O)NC[C@H]2CC2(Cl)Cl)c2ccc(F)cc12 [Example 98, 1-(2-{(1R,3S,5R)-3-[((R)-2,2-Dichloro-cyclopropylmethyl)-carbamoyl]-2-aza-bicyclo[3.1.0]hex-2-yl}-2-oxo-ethyl)-5-fluoro-1H-indazole-3-carboxylic acid amide]
The IC50 of the first is 35-fold lower: 7 nM for the first, 248 nM for the second. The first is the more potent here.

First: CCc1cc2c(C(N)=O)nn(CC(=O)N3[C@@H]4C[C@@H]4C[C@H]3C(=O)N[C@H](C)[C@H]3CC3(Cl)Cl)c2cn1 [Example 39, 1-(2-{(1R,3S,5R)-3-[(R)-1-((R)-2,2-Dichloro-cyclopropyl)-ethylcarbamoyl]-2-aza-bicyclo[3.1.0]hex-2-yl}-2-oxo-ethyl)-5-ethyl-1H-pyrazolo[3,4-c] pyridine-3-carboxylic acid amide]
Second: NC(=O)c1nn(CC(=O)N2[C@@H]3C[C@@H]3C[C@H]2C(=O)NC[C@H]2CC2(Cl)Cl)c2ccc(Cl)cc12 [Example 97, 5-Chloro-1-(2-{(1R,3S,5R)-3-[((R)-2,2-dichloro-cyclopropylmethyl)-carbamoyl]-2-aza-bicyclo[3.1.0]hex-2-yl}-2-oxo-ethyl)-1H-indazole-3-carboxylic acid amide]
The IC50 of the first is 8.1-fold lower: 27 nM for the first, 218 nM for the second. The first is the more potent here.

First: C[C@@H](NC(=O)[C@@H]1C[C@H]2C[C@H]2N1C(=O)Cn1nc(C(N)=O)c2ccncc21)C1CCCCC1 [Example 55, 1-{2-[(1R,3S,5R)-3-((R)-1-Cyclohexyl-ethylcarbamoyl)-2-aza-bicyclo[3.1.0]hex-2-yl]-2-oxo-ethyl}-1H-pyrazolo[3,4-c]pyridine-3-carboxylic acid amide]
Second: CC(=O)c1nn(CC(=O)N2[C@@H]3C[C@@H]3C[C@H]2C(=O)NCC2(C)CC2(Cl)Cl)c2cnccc12 (stereo partly drawn) [Example 13, (1R,3S,5R)-2-[2-(3-Acetyl-pyrazolo[3,4-c]pyridin-1-yl)-acetyl]-2-aza-bicyclo[3.1.0] hexane-3-carboxylic acid (2,2-dichloro-1-methyl-cyclopropylmethyl)-amide]
The IC50 of the first is 6.1-fold lower: 158 nM for the first, 958 nM for the second.

`NC(=O)c1nn(CC(=O)N2[C@@H]3C[C@@H]3C[C@H]2C(=O)NC[C@H]2CC2(Cl)Cl)c2cc(F)c(F)cc12` [Example 96, 1-(2-{(1R,3S,5R)-3-[((R)-2,2-Dichloro-cyclopropylmethyl)-carbamoyl]-2-aza-bicyclo[3.1.0]hex-2-yl}-2-oxo-ethyl)-5,6-difluoro-1H-indazole-3-carboxylic acid amide] showed an IC50 of 307 nM.

Same assay, conditions: IC50, Factor D inhibition data using Method 1; recombinant human factor D 10 nM, substrate Z-Lys-thiobenzyl, fluorescence

First: NC(=O)c1nn(CC(=O)N2[C@@H]3C[C@@H]3C[C@H]2C(=O)NC(CO)C2CC2(Cl)Cl)c2ccccc12 (single isomer, unassigned; dia 2) [Example 24]
Second: CC1CCC(CNC(=O)[C@@H]2C[C@H]3C[C@H]3N2C(=O)Cn2nc(C(N)=O)c3ccccc32)C1 (single isomer, unassigned; dia 2) [Example 90]
The IC50 of the first is 14-fold higher: 755 nM for the first, 53 nM for the second. The second is the more potent here.
